# Where “and” joins values, the source holds several entries; their conditions need not be identical. Identical values can stand only once.
# Legend:
# Test in all cases: In-cell proteome-wide competitive ABPP, HEK293: other DUBs and proteins
# [1] = target: T1, DUBs and other proteins in HEK293 cells (Homo sapiens, UniProt Q9Y5K5); details: replicates A-C; for Log2 reporter intensity values: UCHL5: competition with ABP 2, DMSO substract (FC); for Log2 reporter intensity values: UCHL5, DMSO subtracted
# T1 sequence (Q9Y5K5 1-329): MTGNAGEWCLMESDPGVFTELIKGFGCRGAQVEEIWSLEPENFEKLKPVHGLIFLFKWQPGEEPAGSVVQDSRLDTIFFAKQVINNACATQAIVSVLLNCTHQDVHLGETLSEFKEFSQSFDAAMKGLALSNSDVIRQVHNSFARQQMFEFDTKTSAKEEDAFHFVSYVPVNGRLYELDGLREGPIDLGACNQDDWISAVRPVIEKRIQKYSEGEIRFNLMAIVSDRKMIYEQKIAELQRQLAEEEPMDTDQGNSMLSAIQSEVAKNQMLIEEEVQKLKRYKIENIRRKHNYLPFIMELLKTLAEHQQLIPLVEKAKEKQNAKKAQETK
# [2] = target: T2, DUBs and other proteins in HEK293 cells (Homo sapiens, UniProt Q9Y4E8); details: replicates A-C; for Log2 reporter intensity values: USP15: competition with ABP 2, DMSO substract (FC); for Log2 reporter intensity values: USP15, DMSO subtracted
# T2 sequence (Q9Y4E8 1-981): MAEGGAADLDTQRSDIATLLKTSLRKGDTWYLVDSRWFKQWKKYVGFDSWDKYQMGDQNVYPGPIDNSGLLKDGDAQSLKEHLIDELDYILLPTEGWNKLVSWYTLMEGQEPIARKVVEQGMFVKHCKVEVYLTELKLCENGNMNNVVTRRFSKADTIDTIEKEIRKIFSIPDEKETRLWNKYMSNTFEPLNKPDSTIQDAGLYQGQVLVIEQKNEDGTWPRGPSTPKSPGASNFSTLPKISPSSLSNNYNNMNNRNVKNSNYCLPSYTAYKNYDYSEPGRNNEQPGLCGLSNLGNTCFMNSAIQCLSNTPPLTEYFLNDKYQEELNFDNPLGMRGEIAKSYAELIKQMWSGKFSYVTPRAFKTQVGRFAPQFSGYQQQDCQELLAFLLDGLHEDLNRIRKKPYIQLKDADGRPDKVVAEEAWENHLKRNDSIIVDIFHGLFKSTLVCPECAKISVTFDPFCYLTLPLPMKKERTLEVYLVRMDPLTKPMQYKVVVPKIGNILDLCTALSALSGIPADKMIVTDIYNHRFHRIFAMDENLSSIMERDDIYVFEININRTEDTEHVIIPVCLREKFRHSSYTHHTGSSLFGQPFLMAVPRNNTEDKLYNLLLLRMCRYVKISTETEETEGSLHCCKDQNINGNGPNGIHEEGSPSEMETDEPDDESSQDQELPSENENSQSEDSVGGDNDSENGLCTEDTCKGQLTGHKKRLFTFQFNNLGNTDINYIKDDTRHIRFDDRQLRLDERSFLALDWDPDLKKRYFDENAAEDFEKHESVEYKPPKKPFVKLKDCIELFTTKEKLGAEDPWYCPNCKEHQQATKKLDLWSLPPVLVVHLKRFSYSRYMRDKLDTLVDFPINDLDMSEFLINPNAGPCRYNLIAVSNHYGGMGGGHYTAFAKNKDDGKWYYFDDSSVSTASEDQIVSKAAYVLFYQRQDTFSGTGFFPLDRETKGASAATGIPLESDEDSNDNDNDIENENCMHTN
# [3] = target: DUBs and other proteins in HEK293 cells (Homo sapiens, UniProt Q96FW1); details: replicates A-C; for Log2 reporter intensity values: OTUB1: competition with ABP 2, DMSO substract (FC); for Log2 reporter intensity values: OTUB1, DMSO subtracted
# DUBs and other proteins in HEK293 cells (Homo sapiens, UniProt Q96FW1), sequence (Q96FW1 whole entry): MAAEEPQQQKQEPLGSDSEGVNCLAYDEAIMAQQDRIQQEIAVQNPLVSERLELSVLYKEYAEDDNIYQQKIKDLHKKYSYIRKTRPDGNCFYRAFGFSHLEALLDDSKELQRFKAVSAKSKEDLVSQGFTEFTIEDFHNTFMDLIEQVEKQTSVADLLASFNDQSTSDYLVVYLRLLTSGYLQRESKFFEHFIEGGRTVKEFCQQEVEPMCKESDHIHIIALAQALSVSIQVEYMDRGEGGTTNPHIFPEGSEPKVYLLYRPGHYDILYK
# [4] = target: DUBs and other proteins in HEK293 cells (Homo sapiens, UniProt Q14694); details: replicates A-C; for Log2 reporter intensity values: USP10: competition with ABP 2, DMSO substract (FC); for Log2 reporter intensity values: USP10, DMSO subtracted
# DUBs and other proteins in HEK293 cells (Homo sapiens, UniProt Q14694), sequence (Q14694 whole entry): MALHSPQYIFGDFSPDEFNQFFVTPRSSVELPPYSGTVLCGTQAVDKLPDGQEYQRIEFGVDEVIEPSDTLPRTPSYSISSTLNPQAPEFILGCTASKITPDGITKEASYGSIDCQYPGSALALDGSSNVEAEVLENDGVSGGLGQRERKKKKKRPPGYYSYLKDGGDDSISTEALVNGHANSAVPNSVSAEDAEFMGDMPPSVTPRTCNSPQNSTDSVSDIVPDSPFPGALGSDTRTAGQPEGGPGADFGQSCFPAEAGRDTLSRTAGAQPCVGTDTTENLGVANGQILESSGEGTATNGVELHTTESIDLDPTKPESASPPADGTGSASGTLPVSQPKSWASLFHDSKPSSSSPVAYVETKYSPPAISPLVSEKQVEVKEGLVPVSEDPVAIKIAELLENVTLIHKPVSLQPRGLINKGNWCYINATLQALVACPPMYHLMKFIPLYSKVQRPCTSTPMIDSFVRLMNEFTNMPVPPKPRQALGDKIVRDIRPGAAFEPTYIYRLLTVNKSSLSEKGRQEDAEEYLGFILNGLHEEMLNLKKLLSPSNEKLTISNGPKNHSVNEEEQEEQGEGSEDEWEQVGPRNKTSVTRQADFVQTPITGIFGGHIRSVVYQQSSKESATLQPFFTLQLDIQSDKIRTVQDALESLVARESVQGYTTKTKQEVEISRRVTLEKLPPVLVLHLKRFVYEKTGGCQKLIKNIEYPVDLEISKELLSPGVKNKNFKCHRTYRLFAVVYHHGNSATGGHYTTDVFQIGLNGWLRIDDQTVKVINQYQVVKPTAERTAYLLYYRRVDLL
# [5] = target: DUBs and other proteins in HEK293 cells (Homo sapiens, UniProt Q6P2Q9); details: replicates A-C; for Log2 reporter intensity values: PRPF8: competition with ABP 2, DMSO substract (FC); for Log2 reporter intensity values: PRPF8, DMSO subtracted
# [6] = target: DUBs and other proteins in HEK293 cells (Homo sapiens, UniProt O00487); details: replicates A-C; for Log2 reporter intensity values: PSMD14: competition with ABP 2, DMSO substract (FC); for Log2 reporter intensity values: PSMD14, DMSO subtracted
# DUBs and other proteins in HEK293 cells (Homo sapiens, UniProt O00487), sequence (O00487 whole entry): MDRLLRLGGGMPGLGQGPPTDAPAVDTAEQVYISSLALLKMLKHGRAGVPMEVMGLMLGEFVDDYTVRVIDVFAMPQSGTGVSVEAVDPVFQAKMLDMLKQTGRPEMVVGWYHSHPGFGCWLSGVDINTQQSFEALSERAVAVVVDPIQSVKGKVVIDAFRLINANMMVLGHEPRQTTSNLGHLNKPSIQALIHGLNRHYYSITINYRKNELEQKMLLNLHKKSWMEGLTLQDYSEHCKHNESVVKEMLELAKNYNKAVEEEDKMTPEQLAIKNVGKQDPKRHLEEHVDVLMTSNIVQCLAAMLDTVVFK
# [7] = target: T3, DUBs and other proteins in HEK293 cells (Homo sapiens, UniProt P51665); details: replicates A-C; for Log2 reporter intensity values: PSMD7: competition with ABP 2, DMSO substract (FC); for Log2 reporter intensity values: PSMD7, DMSO subtracted
# T3 sequence (P51665 1-324): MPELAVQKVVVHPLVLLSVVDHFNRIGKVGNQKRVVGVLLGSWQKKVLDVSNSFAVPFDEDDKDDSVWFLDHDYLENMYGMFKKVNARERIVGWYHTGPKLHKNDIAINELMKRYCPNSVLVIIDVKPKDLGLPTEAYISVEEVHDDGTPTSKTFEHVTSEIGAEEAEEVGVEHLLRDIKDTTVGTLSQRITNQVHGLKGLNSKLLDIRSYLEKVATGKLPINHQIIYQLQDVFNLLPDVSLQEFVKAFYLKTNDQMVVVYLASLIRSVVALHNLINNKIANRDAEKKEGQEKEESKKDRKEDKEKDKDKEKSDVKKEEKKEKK
# [8] = target: DUBs and other proteins in HEK293 cells (Homo sapiens, UniProt Q7L5N1); details: for Log2 reporter intensity values, COPS6: TMT replicates; for Log2 reporter intensity values: COPS6: competition with ABP 2, DMSO substract (FC); for Log2 reporter intensity values: COPS6 / Log2 reporter intensity values: replicates A-C; for Log2 t-test Difference / Log2 reporter intensity values: COPS6
# DUBs and other proteins in HEK293 cells (Homo sapiens, UniProt Q7L5N1), sequence (Q7L5N1 whole entry): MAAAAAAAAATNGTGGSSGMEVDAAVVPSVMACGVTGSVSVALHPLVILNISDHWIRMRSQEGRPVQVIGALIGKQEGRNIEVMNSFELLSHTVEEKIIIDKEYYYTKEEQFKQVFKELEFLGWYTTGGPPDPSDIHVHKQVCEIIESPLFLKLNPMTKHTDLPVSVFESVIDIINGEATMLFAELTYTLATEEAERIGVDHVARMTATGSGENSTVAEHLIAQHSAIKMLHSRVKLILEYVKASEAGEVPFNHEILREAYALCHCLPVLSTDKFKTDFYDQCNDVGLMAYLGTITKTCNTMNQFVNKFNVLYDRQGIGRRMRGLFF
compound,measurement,setting,value
N#CN1CCC[C@H]1C(=O)N1CCc2c(-c3c[nH]c4ncccc34)cccc21 [Compound 1],Log2 reporter intensity values: UCHL5,[1]; 1 at 1 μM,1.121 and 1.059 and 1.084
same,Log2 reporter intensity values: UCHL5,[1]; 1 at 4 μM,1.068 (2×) and 1.07
same,Log2 reporter intensity values,[1]; 1_1 μM,0.1208 and 0.05828 and 0.08364
same,Log2 reporter intensity values,[1]; 1_4 μM,0.06718 and 0.06755 and 0.06936
same,Log2 reporter intensity values,[1]; 1 at 1 μM,0.1653 and 0.08265 and 0.1168
same,Log2 reporter intensity values,[1]; 1 at 4 μM,0.09472 and 0.09521 and 0.09766
same,Log2 reporter intensity values: USP15,[2]; 1 at 1 μM,0.9886 and 1.029 and 1.017
same,Log2 reporter intensity values: USP15,[2]; 1 at 4 μM,1.093 and 1.191 and 1.05
same,Log2 reporter intensity values,[2]; 1_1 μM,-0.01164 and 0.02918 and 0.01631
same,Log2 reporter intensity values,[2]; 1_4 μM,0.09302 and 0.1906 and 0.04957
same,Log2 reporter intensity values,[2]; 1 at 1 μM,-0.0165 and 0.04186 and 0.02371
same,Log2 reporter intensity values,[2]; 1 at 4 μM,0.1287 and 0.252 and 0.07016
same,Log2 reporter intensity values: OTUB1,[3]; 1 at 1 μM,1.079 and 1.058 and 1.055
same,Log2 reporter intensity values: OTUB1,[3]; 1 at 4 μM,0.9564 and 0.9957 and 1.033
same,Log2 reporter intensity values,[3]; 1_1 μM,0.07905 and 0.05739 and 0.05461
same,Log2 reporter intensity values,[3]; 1_4 μM,-0.04373 and -0.004436 and 0.03334
same,Log2 reporter intensity values,[3]; 1 at 1 μM,0.1099 and 0.08068 and 0.07687
same,Log2 reporter intensity values,[3]; 1 at 4 μM,-0.06433 and -0.00624 and 0.04749
same,Log2 reporter intensity values: USP10,[4]; 1 at 1 μM,0.8161 and 0.9562 and 0.9573
same,Log2 reporter intensity values: USP10,[4]; 1 at 4 μM,0.9286 and 0.9489 and 0.874
same,Log2 reporter intensity values,[4]; 1_1 μM,-0.1848 and -0.04476 and -0.04368
same,Log2 reporter intensity values,[4]; 1_4 μM,-0.07234 and -0.05211 and -0.1269
same,Log2 reporter intensity values,[4]; 1 at 1 μM,-0.2931 and -0.06461 and -0.06297
same,Log2 reporter intensity values,[4]; 1 at 4 μM,-0.1068 and -0.07574 and -0.1942
same,Log2 reporter intensity values: PRPF8,[5]; 1 at 1 μM,0.961 and 0.941 and 0.9412
same,Log2 reporter intensity values: PRPF8,[5]; 1 at 4 μM,0.9254 and 0.9448 and 0.8776
same,Log2 reporter intensity values,[5]; 1_1 μM,-0.03926 and -0.05927 and -0.05901
same,Log2 reporter intensity values,[5]; 1_4 μM,-0.07482 and -0.05547 and -0.1226
same,Log2 reporter intensity values,[5]; 1 at 1 μM,-0.05742 and -0.08778 and -0.08738
same,Log2 reporter intensity values,[5]; 1 at 4 μM,-0.1118 and -0.08196 and -0.1883
same,Log2 reporter intensity values: PSMD14,[6]; 1 at 1 μM,1.038 and 0.9518 and 1.018
same,Log2 reporter intensity values: PSMD14,[6]; 1 at 4 μM,1.04 and 0.9939 and 0.9281
same,Log2 reporter intensity values,[6]; 1_1 μM,0.0358 and -0.05091 and 0.01579
same,Log2 reporter intensity values,[6]; 1_4 μM,0.03701 and -0.008736 and -0.0746
same,Log2 reporter intensity values,[6]; 1 at 1 μM,0.05445 and -0.07134 and 0.02638
same,Log2 reporter intensity values,[6]; 1 at 4 μM,0.05612 and -0.008793 and -0.1077
same,Log2 reporter intensity values: PSMD7,[7]; 1 at 1 μM,1.13 and 1.005 and 1.053
same,Log2 reporter intensity values: PSMD7,[7]; 1 at 4 μM,1.07 and 1.047 and 1.231
same,Log2 reporter intensity values,[7]; 1_1 μM,0.1278 and 0.002507 and 0.05011
same,Log2 reporter intensity values,[7]; 1_4 μM,0.06753 and 0.04399 and 0.2288
same,Log2 reporter intensity values,[7]; 1 at 1 μM,0.1768 and 0.007299 and 0.07406
same,Log2 reporter intensity values,[7]; 1 at 4 μM,0.09774 and 0.06565 and 0.3003
same,"Log2 reporter intensity values, COPS6","[8]; 1 μM 1 (60 min) + 20 nM ABP 2 (10 min), All values",-0.0741 and -0.01578 and 0.003018
same,"Log2 reporter intensity values, COPS6","[8]; 1 μM 1 (60 min) + 20 nM ABP 2 (10 min), DMSO subtracted",-0.08651 and -0.02819 and -0.009395
same,"Log2 reporter intensity values, COPS6","[8]; 4 μM 1 (60 min) + 20 nM ABP 2 (10 min), All values",0.02899 and -0.02559 and 0.0005347
same,"Log2 reporter intensity values, COPS6","[8]; 4 μM 1 (60 min) + 20 nM ABP 2 (10 min), DMSO subtracted",0.01657 and -0.038 and -0.01188
same,Log2 reporter intensity values: COPS6,[8]; 1 at 1 μM,0.9418 and 0.9806 and 0.9935
same,Log2 reporter intensity values: COPS6,[8]; 1 at 4 μM,1.012 and 0.974 and 0.9918
same,Log2 t-test Difference,[8]; 1 - 1 μM,-0.08501
same,Log2 t-test Difference,[8]; 1 - 4 μM,-0.05474
same,Log2 reporter intensity values,"[8]; 1_1 μM, DMSO subtracted",-0.05832 and -0.01946 and -0.006603
same,Log2 reporter intensity values,"[8]; 1_4 μM, DMSO subtracted",0.01144 and -0.02611 and -0.008312
same,Log2 reporter intensity values,"[8]; 1 at 1 μM, DMSO subtracted",-0.08651 and -0.02819 and -0.009395
same,Log2 reporter intensity values,"[8]; 1 at 4 μM, DMSO subtracted",0.01657 and -0.038 and -0.01188
